Molecular target: T1, recombinant Human β-Amyloid Peptide (1-42) (Homo sapiens, UniProt P05067)
T1 construct: recombinant Human β-Amyloid Peptide (1-42); purchased BioLegend 843801
Test: Mass spectrometry (MS) binding assay
Settings: 22 pmol/μL peptide, 1100 pmol/μL compound (50×); for Number of molecules bound to Aβ42: direct infusion Q-TOF MS, stoichiometry of the binding; for Semiquantitative Estimation: semiquantitative evaluation of the binding compared to a blank
Experimental: Compounds of the invention were screened by mass spectrometry (“MS”) binding assays to assess the ability of compounds to bind to the protein. Approximately 1 mg of the compound was reconstituted in 1 mL of MilliQ water and vortexed vigorously for 2 minutes until completely in solution. The sample was then diluted to create an approximately 2200 pmol/μL solution. One mg of recombinant Human β-Amyloid Peptide (1-42) from BioLegend (99% purity, cat: 843801) was reconstituted in 200 μL of MilliQ water and vortexed vigorously for 2 minutes to solubilize the peptide creating a 5 mg/mL solution. Samples were then diluted to a final concentration 44 pmol/μL prior to mix with drug solution. Samples were then mixed together for a final concentration of 22 pmol/μL (x) for peptide and 1100 pmol/μL for individual compounds (50×). Samples were infused directly in mass specs after adding 50 μL of 10% formic acid in final solution to increase the ionization. The data acquisition was performed using a Waters time of flight mass spectrometer (Q-TOF Micro). The data was acquired using the scanning mode to allow for the detection of the peptide. Samples were infused at room temperature. The mass spectrometer conditions were maintained throughout the study to ensure consistency of the data. The Waters Qtof conditions were as follows: Samples were directly infused into the mass spectrometer at a flow rate of 20 μL/min using in-build Syringe Pump and Hamilton 1 mL Syringe and the acquisition time was kept 2 minutes. Once acquisition of the samples was completed, the raw data was then analyzed using the Water MassLynx 4.1, SCN744. Stoichiometry of the binding was determined and the semiquantitative evaluation of the binding was compared to a blank.

T1 sequence (P05067 672-713 limits assumed): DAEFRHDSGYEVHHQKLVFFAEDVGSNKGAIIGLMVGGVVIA

| SMILES | Number of molecules bound to Aβ42 | Semiquantitative Estimation |
| --- | --- | --- |
| CNC(=O)[C@@H]1C[C@@H](S(=O)(=O)O)CN1 [Compound 2084] | [+5] | [+++++] |
| O=C([C@@H]1C[C@H](S(=O)(=O)O)CN1)N(CCO)CCO [Compound 2059] | [+2] | [++] |
| O=C(NCc1ccccc1)[C@@H]1C[C@H](S(=O)(=O)O)CN1 [Compound 2055] | [+4] | [++++] |
| O=C([C@@H]1C[C@@H](S(=O)(=O)O)CN1)N(CCO)CCO [Compound 2087] | [+4] | [++++] |
| CS(=O)(=O)CC[C@H](NC(=O)OCc1ccccc1)C(=O)NC1CCC(S(=O)(=O)O)C1 (stereo partly drawn) [Compound 2026, 3-((S)-2-(((benzyloxy)carbonyl)amino)-4-(methylsulfonyl)butanamido)cyclopentane-1-sulfonic acid] | [+2] | [++] |
| O=C(N[C@@H](Cc1ccc(O)cc1)C(=O)NC1CCC(S(=O)(=O)O)C1)OCc1ccccc1 (stereo partly drawn) [Compound 2021, 3-((S)-2-(((benzyloxy)carbonyl)amino)-3-(4-hydroxyphenyl)propanamido)cyclopentane-1-sulfonic acid] | No Binding | – |
| CCN(CC)C(=O)[C@@H]1C[C@@H](S(=O)(=O)O)CN1 [Compound 2085] | [+4] | [++++] |
| O=C(NCc1ccccc1)[C@@H]1C[C@@H](S(=O)(=O)O)CN1 [Compound 2083] | [+2] | [++] |
| N[C@@H](Cc1ccc(O)cc1)C(=O)NC1CCC(S(=O)(=O)O)C1 (stereo partly drawn) [Compound 2015, 3-((S)-2-amino-3-(4-hydroxyphenyl)propanamido)cyclopentane-1-sulfonic acid] | [+3] | [+++] |
| O=C(NC1CCNCC1)[C@@H]1C[C@H](S(=O)(=O)O)CN1 [Compound 2077] | [+4] | [++++] |

The next lines start with the values.

| Number of molecules bound to Aβ42 | Semiquantitative Estimation | SMILES |
| --- | --- | --- |
| [+1] | [+] | O=C(NCc1ccccc1)C1CCC(S(=O)(=O)O)C1 (centres unmarked) [Compound 2030, 3-(benzylcarbamoyl)cyclopentane-1-sulfonic acid] |
| [+3] | [+++] | O=C(O)C1CCC(S(=O)(=O)O)C1 (centres unmarked) [Compound 2029, 3-Sulfocyclopentane-1-carboxylic acid] |
| [+1] | [+] | O=C(N[C@@H](CO)C(=O)O)C1CCC(S(=O)(=O)O)C1 (some centres unmarked) [Compound 2037] |
| [+1] | [+] | CC(C)C[C@H](N)C(=O)NC1CCC(S(=O)(=O)O)C1 (stereo partly drawn) [Compound 2011, 3-((S)-2-amino-4-methylpentanamido)cyclopentane-1-sulfonic acid] |
| No Binding | – | CC(C)C[C@H](NC(=O)OCc1ccccc1)C(=O)NC1CCC(S(=O)(=O)O)C1 (stereo partly drawn) [Compound 2024, 3-((S)-2-(((benzyloxy)carbonyl)amino)-4-methylpentanamido)cyclopentane-1-sulfonic acid] |
| [+1] | [+] | NC1CCC(S(=O)(=O)O)C1 (centres unmarked) [Compound 2005, 3-aminocyclopentane-1-sulfonic acid] |
| No Binding | – | O=C(N[C@@H](Cc1ccccc1)C(=O)O)C1CCC(S(=O)(=O)O)C1 (some centres unmarked) [Compound 2034] |
| [+2] | [++] | CC(C)[C@H](N)C(=O)NC1CCC(S(=O)(=O)O)C1 (stereo partly drawn) [Compound 2010, 3-((S)-2-amino-3-methylbutanamido)cyclopentane-1-sulfonic acid] |
| [+3] | [+++] | CS(=O)(=O)CC[C@H](N)C(=O)NC1CCC(S(=O)(=O)O)C1 (stereo partly drawn) [Compound 2014, 3-((S)-2-amino-4-(methylsulfonyl)butanamido)cyclopentane-1-sulfonic acid] |
| [+4] | [++++] | N[C@@H](CO)C(=O)NC1CCC(S(=O)(=O)O)C1 (some centres unmarked) [Compound 2012] |
| [+4] | [++++] | C[C@H](NC(=O)[C@@H]1C[C@H](S(=O)(=O)O)CN1)C(=O)O [Compound 2061] |
| [+3] | [+++] | COC(=O)C1CCC(S(=O)(=O)O)C1 (centres unmarked) [Compound 2028, 3-(Methoxycarbonyl)cyclopentane-1-sulfonic acid] |

— US10590070B2, “Compositions and methods for treating and preventing neurodegenerative disorders” (ALZHEON, INC., priority 2015, dated 2020)
